In the assay the target is T1, VIM-1 (Pseudomonas aeruginosa, UniProt A0A0F7KYQ8).
T1 construct: made in house; host or cells: E. coli BL21(DE3) derivative, pET-9a
Nature of the assay: MBL inhibition, reporter substrate method, VIM-1. It counts as biochemical. The note with it: read-out: Inhibition of VIM-1 (dash). Here is the method: Compounds were prepared in DMSO at a final concentration of 50 mM prior to dilution in the assay buffer. The reaction rate was measured as the variation of absorbance observed upon substrate hydrolysis in a UV-Vis spectrophotometer or microplate reader at a wavelength of 300 nm (imipenem, meropenem), 260 nm (cefotaxime), or 482 nm (nitrocefin) and in the presence of a purified MBL enzyme (such as VIM-1, VIM-2, VIM-4, NDM-1, and IMP-1, at a final concentration ranging from 1 to 70 nM).
These enzymes were overproduced in derivatives of E. coli BL21(DE3) carrying a pET-9 a (IMP-1, VIM-1, VIM-2, and VIM-4) or pET-15 b (NDM-1) vector into which the metallo-β-lactamase-encoding open reading frame was cloned. Bacterial strains were grown in the auto-inducing medium, ZYP-5052, supplemented with 50 μg/mL kanamycin for 24 h at 37 °C [38]. IMP-1, VIM-1, VIM-2, and VIM-4 were purified by ion-exchange and gel filtration chromatography using an AKTA Purifier platform (GE Healthcare, Uppsala, Sweden) as previously described. NDM-1 (residues 37-270) was produced as an amino-terminal 6 xHis-tag fusion protein and was purified using affinity chromatography. After growth for 26 h at 25 °C, bacterial cells were harvested by centrifugation (10,000× g, 30 min, 4 °C), resuspended in 10 mM HEPES buffer (pH 7.5) containing 0.15 M NaCl (buffer A) in one-fifth of the original culture volume, and lysed by sonication. Cellular debris was removed by centrifugation (12,000× g, 40 min, 4 °C). The clarified sample was loaded on a HisTrap HP column (bed volume, 5 mL; GE Healthcare), followed by a wash step (25 mL) with buffer A containing 20 mM imidazole. Proteins were eluted using buffer A containing 350 mM imidazole. The resulting protein sample was desalted (HiPrep 26/10 Desalting column, GE Healthcare) using 20 mM triethanolamine (pH 7.2) supplemented with 50 μM ZnSO4 and concentrated using an Amicon Ultra-15 (MW cut-off, 10 kDa; Millipore, Burlington, MA, USA). The concentrated sample was loaded on a Superdex 75 prep grade column (XK16/100 column; bed volume, 140 mL; GE Healthcare) and the proteins eluted with buffer A containing 50 μM ZnSO4. The active fractions were pooled and stored at −20 °C. The purity of the protein preparations was estimated >95% by SDS-PAGE analysis. The authenticity of the enzyme preparations was confirmed by electron spray ionization mass spectrometry, as previously described.
The inhibition constants (Ki) were determined on the basis of a model of competitive inhibition by analyzing the dependence of the ratio v0/vi (v0, hydrolysis velocity in the absence of inhibitor; vi, hydrolysis velocity in the presence of inhibitor) as a function of [I] as already described. The slope of the plot of v0/vi vs. [I], which corresponds to Km^S/(Km^S + [S])Ki (where Km^S is the Km value of the reporter substrate and [S] its concentration in the reaction mixture) and allowed the calculation of the Ki value. Alternatively, a Dixon plot analysis was carried out by measuring the initial hydrolysis rates in the presence of variable concentrations of inhibitor and substrate. This allowed Ki values to be determined and supported the hypothesis that the various compounds behaved as competitive inhibitors of the various tested enzymes. The assays were performed in triplicate.

Inhibition data for 1 compound are collected here from paper PMC7465886, “4-(N-Alkyl- and -Acyl-amino)-1,2,4-triazole-3-thione Analogs as Metallo-β-Lactamase Inhibitors: Impact of 4-Linker on Potency and Spectrum of Inhibition” (Biomolecules, 2020).

What is called inhibition is the drop in the measured response relative to a control, in per cent. For the compound `O=C(O)c1ccccc1CNn1c(-c2ccccc2)n[nH]c1=S` [Compound 1], the inhibition at 100 µM is less than 30%.
